# EP3325012B1, “CINEOLE-CONTAINING COMPOSITION FOR TREATING NOSE POLYPS” (Maria Clementine Martin Klosterfrau Vertriebsgesellschaft …, priority 2015, dated 2017)
# Entries after “also recorded” stand apart in the source; their conditions may differ.
# Experiments:
# [1] = tested on: Transkriptionsfaktors NF-kB; assay: NF-kB transcription factor activity in polyp material; format: cell-based, Mensch; details: in Polyposis nasi et sinuum; TNF-alpha as positive control
# Source text: Da auch für Polyposis nasi et sinuum postuliert wird, dass Entzündungsparameter einen entscheidenden Einfluss auf die Progression dieser Erkrankung haben, untersuchte die Anmelderin den Einfluss von Cineol auf die Aktivität des Transkriptionsfaktors Nuclear Factor kappa B (NF-kB) und auf die Aktivität eines breiten Spektrums verschiedener Phosphokinasen, um so die molekularen Angriffspunkte von Cineol in verschiedenen Biosynthesewegen der Zelle hinsichtlich des Polyposis nasi et sinuum-"Mikromilieus" zu identifizieren.
# Bei den Messergebnissen wurde TNF-alpha (tumor necrosis factor-alpha) als etablierter Stimulus der NF-kB Aktivität und somit als interne Positivkontrolle verwendet.
# HNSCC-Zelllinien = assay: MTT assay, vitality and proliferation of HNSCC cell lines; format: cell-based; details: 1 mM bis 10 mM, 250 Stunden, two cell lines
# Experimental: (§1) Es wurden weiterführende Untersuchungen durchgeführt zur Analyse des Einflusses von Cineol auf die Vitalität und Proliferation verschiedener permanenter Zelllinien. Hierzu wurden einerseits die zwei HNSCC-Zelllinien und des Weiteren eine Fibroblastenzelllinie verwendet. Diese wurden über einen Zeitraum von 250 Stunden mit verschiedenen Cineol-Konzentrationen kultiviert (1 mM bis 10 mM) und die Vitalität der Zellen wurde jeweils mittels eines MTT-Assays untersucht.
# Nasenpolypenzellen = assay: Proliferation of nasal polyp cells (xCELLigence Real Time Cell Analyzer; figure legend says MTT test); format: cell-based, Mensch; details: 100 µM 1,8-Cineol, after 144 Stunden; two subjects I and II (Figur 2A)
# Source text: Material und Methoden: Die Anmelderin hat Gewebeproben aus Nasenpolypen und unteren Nasenmuscheln von Patienten mit CRSwNP (chronischer Rhinosinusitis mit Nasenpolypen) und aus unteren Nasenmuscheln von Probanden ohne chronische Sinusitis (gesunde Schleimhaut) auf Basis von immunohistochemischen Methoden und Immunoblot-Verfahren untersucht. Die zelluläre Proliferation und Migration wurden unter Einsatz des xCELLigence Real Time Cell Analyzer untersucht.
# Proben von Nasenpolypen wurden in PBS-Puffer gewaschen und in sterilem serumfreiem "High Glucose Dulbecco's Modified Eagle Medium" (PAA, Pasching, Österreich) mit einer Skalpellklinge vorsichtig in kleine Stücke zerkleinert, wobei das Medium 1 % L-Glutamin, 1 % Natriumpyruvat, 1 % nichtessentielle Aminosäuren, 2 % Amphotericin B, 2 % Streptomycin und 2 % Penicillin, ergänzt mit 10 % FCS, und 25 mM HEPES Puffer, enthielt (alle von PAA, Pasching, Österreich). […]
# Die Zellproliferation wurde mittels eines quantitativen kolorimetrischen 3-(4,5-Dimethylthiazol 2-yl)-2,5-diphenyltetrazoliumbromid-basierten (MTT) Zelltests bestimmt. […]
# Phosphokinasen = assay: Human Phospho-Kinase Antibody Array on nasal epithelial cells; format: cell-based, Mensch; details: 100 µM, 24 Stunden; epithelial cells from nasal polyps compared with epithelial cells from inferior turbinates
# Source text: Pflanzliche Medikationen könnten diese Nebenwirkungen reduzieren. In der Naturheilkunde werden ätherische Öle aufgrund ihrer sekretolytischen Eigenschaften zur Behandlung von Menschen eingesetzt, die klinische Verwendung wird jedoch aufgrund von Reizungen der Atemwege nach Inhalation bzw. Aufnahme eingeschränkt. Der Hauptbestandteil von Eukalyptusöl, nämlich 1,8-Cineol, wurde zur Behandlung von akuter und chronischer Bronchitis, Sinusitis und respiratorischen Infekten eingesetzt und allgemein gut vertragen. Bei dem Monoterpen 1,8-Cineol handelt es sich um ein Isoprenoid mit antiinflammatorischen Eigenschaften, welches menschlichen Isoprenoiden, wie Glucocorticoid, ähnelt. Unlängst wurden seitens der Anmelderin neue Eigenschaften des Mechanismus von 1,8-Cineol in Epithelzellen des Nasenpolypengewebes von Patienten mit chronischer Rhinosinusitis entdeckt. Im Rahmen dieser Studien hat die Anmelderin Epithelzellen aus Nasenpolypen und Gewebe der unteren Nasenmuscheln von zahlreichen Patienten isoliert und über einen Zeitraum von 24 Stunden in 100 µM 1,8-Cineol inkubiert. Die Proteine wurden isoliert und die Phosphokinasen mit Hilfe des "Human Phospho-Kinase Antibody Array" von R&D Systems ermittelt. […]
# [2] = tested on: allen untersuchten Zellspezies; assay: Vitality/proliferation, summary over all cell species investigated; format: cell-based; details: 10mM
# Experimental: Erste Vorversuche zum Einfluss von Cineol auf die Progression von Polyposis nasi et sinuum wurden durchgeführt. Hierzu wurden zunächst Einzelzellsuspensionen hergestellt und diese wurden in der Zellkultur über einen Zeitraum von 288 Stunden mit Standardmedium und mit 1mM Cineol inkubiert.
# as §1
# Hierbei zeigte sich ein ähnliches Bild wie in den vorhergegangenen Untersuchungen zum Einfluss von Cineol auf die Vitalität von Polyposis nasi et sinuum-Einzelzellsupensionen, wobei sich jedoch die permanenten Zelllinien erst zu geringfügig späteren Zeitpunkten und bei geringfügig höheren Cineol-Konzentrationen signifikant in ihrer Proliferation beeinflussen ließen. […]
compound,measurement,setting,value
"CC12CCC(CC1)C(C)(C)O2 [1,8-Cineol, 1,3,3-Trimethyl-2-oxabicyclo[2.2.2]octan]",Aktivität des Transkriptionsfaktors NF-kB,[1],"keinen inhibierenden Einfluss hierauf hat, sondern vielmehr leicht aktivierend"
same,Progression und Vitalität von HNSCC,HNSCC-Zelllinien,inhibierender Einfluss
same,Proliferation von Nasenpolypenzellen,Nasenpolypenzellen,stark verringerte Proliferation; also recorded: stark abnehmende Proliferation
same,Expression von Phosphokinasen,Phosphokinasen,veränderte Expression
same,zytotoxische Wirkung,[2],deutlich zytotoxischen Wirkung
